Assays:
[1] = tested on: gastric acid secretion; assay: Inhibitory effect on gastric acid secretion, pylorus ligation method (histamine); type: in vivo, Wistar strain rats; settings: Rattus norvegicus, oral, histamine 25 mg/kg s.c., read-out: Inhibition percentage (gastric acid secretion)
Procedure: Five to six Wistar strain rats (male, 190 to 230 g) per group were starved for 35 hours, after which each drug was orally administered, and after 2 hours, the pylorus of each rat was ligated under ether anesthesia. […] After 3 hours, each rat was killed, after which the cardiac portion was ligated, and the stomach was removed. After 1 ml of distilled water was injected into the stomach, the gastric juice was collected by centrifugation and its volume was measured. The acidity of the gastric juice was measured by titrating 1 ml of the gastric juice with a 0.1N aqueous sodium hydroxide solution, taking pH 7.0 as the end-point. Physiological saline was administered to a control group.
The inhibition percentage of gastric acid secretion was determined from the following equation: [formula]

[2] = tested on: gastric acid secretion; assay: Inhibitory effect on gastric acid secretion, perfused stomach preparation of anesthetized rat (histamine stimulated); type: in vivo, Wistar strain rats; settings: intravenous; for ED100: Rattus norvegicus, cumulative, histamine 30 μg/kg/min, read-out: Dose for complete inhibition; for Duration: time from complete inhibition until pH of perfusate became 4
Procedure: (i) Perfused stomach preparation of anesthetized rat [according to M. N. Ghosh and H. O. Schild: Brit. J. Pharmacol. 13, 54 (1958)]
Wistar strain rats (male, 200 to 250 g) starved for 18 hours were anesthetized with urethane and then subjected to laparotomy, after which the forestomach region of the stomach of each rat was incised. The whole interior of the stomach was sufficiently washed with physiological saline, and the cut edges were sutured. A silicon tube was inserted into the stomach to a length of about 5 mm from the duodenum side and fixed. Subsequently, the stomach was perfused with physiological saline adjusted to a pH of about 10 with an aqueous sodium hydroxide solution at a constant rate (1 ml/min) through an oral sonde, and the change in pH of the perfusate which had flowed out through the silicone tube was continuously recorded. During the perfusion, histamine (30 μg/kg/min) was continuously injected, as an agent for stimulating gastric acid secretion, through the femoral vein at a rate of 0.3 ml/min. Each drug was intravenously administered when the acid secretion became almost constant (pH 3.3±0.2), and cumulatively administered when the inhibition of acid secretion at each dose reached a plateau.
The number of experiments was three for each dose.

Compound `Cc1ccccc1C(O)CNC(=C[N+](=O)[O-])NCCCOc1cccc(CN2CCCCC2)c1` (centres unmarked) [compound 44, N-[2-hydroxy-2-(2-methylphenyl)ethyl]-2-nitro-N'-[3-(3-piperidinomethylphenoxy)propyl]-1,1-ethenediamine] has an inhibition in vivo at 1 mg/kg [1] of 75%.
`COc1ccc(C(O)CNC(=C[N+](=O)[O-])NCCCOc2cccc(CN3CCCCC3)c2)cc1` (centres unmarked) [compound 14, N-[2-hydroxy-2-(4-methoxyphenyl)ethyl]-2-nitro-N'-[3-(3-piperidinomethylphenoxy)propyl]-1,1-ethenediamine] showed an inhibition in vivo at 1 mg/kg [1] of 61%, an ED100 [2] of 0.15 mg/kg and a Duration [2] of 158 min.
In the case of `Nc1ccc(C(O)CNC(=C[N+](=O)[O-])NCCCOc2cccc(CN3CCCCC3)c2)cc1` (centres unmarked) [compound 45, N-[2-(4-aminophenyl)-2-hydroxyethyl]-2-nitro-N'-[3-(3-piperidinomethylphenoxy)propyl]-1,1-ethenediamine], the inhibition in vivo at 1 mg/kg [1] is reported as 65%.
For `Cc1cc(CSCCNC(=C[N+](=O)[O-])NCC(O)c2ccc(F)cc2)sc1CN(C)C` (centres unmarked) [compound 41, N-{2-[[5-(dimethylamino)methyl-4-methyl-2-thienyl]methylthio]ethyl}-N'-[2-(4-fluorophenyl)-2-hydroxyethyl]-2-nitro-1,1-ethenediamine], the inhibition in vivo at 1 mg/kg [1] was 65%.
`Cc1ccsc1C(O)CNC(=C[N+](=O)[O-])NCCCOc1cccc(CN2CCCCC2)c1` (centres unmarked) [compound 18, N-[2-hydroxy-2-(3-methyl-2-thienyl)ethyl]-2-nitro-N'-[3-(3-piperidinomethylphenoxy)propyl]-1,1-ethenediamine] showed an inhibition in vivo at 3 mg/kg [1] of 87%, an ED100 [2] of 0.3 mg/kg and a Duration [2] of 247 min.
In the case of `O=[N+]([O-])C=C(NCCCOc1cccc(CN2CCCCC2)c1)NCC(O)c1ccc(Cl)cc1` (centres unmarked) [compound 16, N-[2-(4-chlorophenyl)-2-hydroxyethyl]-2-nitro-N'-[3-(3-piperidinomethylphenoxy)propyl]-1,1-ethenediamine], the inhibition in vivo at 3 mg/kg [1] is reported as 89%, the ED100 [2] is reported as 0.1 mg/kg and the Duration [2] is reported as 304 min.
`Cc1cc(CSCCNC(=C[N+](=O)[O-])NCC(O)c2ccc(F)cc2F)sc1CN(C)C` (centres unmarked) [compound 35, N-{2-[[5-(dimethylamino)methyl-4-methyl-2-thienyl]methylthio]ethyl}-N'-[2-(2,4-difluorophenyl)-2-hydroxyethyl]-2-nitro-1,1-ethenediamine] was tested, and the inhibition in vivo at 1 mg/kg [1] was 47%.
Work on `Cc1cc(CSCCNC(=C[N+](=O)[O-])NCC(O)c2c(F)cccc2F)sc1CN(C)C` (centres unmarked) [compound 34, N-{2-[[5-(dimethylamino)methyl-4-methyl-2-thienyl]methylthio]ethyl}-N'-[2-(2,6-difluorophenyl)-2-hydroxyethyl]-2-nitro-1,1-ethenediamine] yielded an inhibition in vivo at 3 mg/kg [1] of 71%.
In the case of `CN(C)Cc1ccc(CSCCNC(=C[N+](=O)[O-])NCC(O)c2ccc(F)cc2)o1` (centres unmarked) [compound 38, N-{2-[[5-(dimethylamino)methyl-2-furyl]methylthio]ethyl}-N'-[2-(4-fluorophenyl)-2-hydroxyethyl]-2-nitro-1,1-ethenediamine], the inhibition in vivo at 1 mg/kg [1] is reported as 41%.
In the case of `O=[N+]([O-])C=C(NCCCOc1cccc(CN2CCCCC2)c1)NCC(O)c1ccccc1F` (centres unmarked) [compound 36, N-[2-(2-fluorophenyl)-2-hydroxyethyl]-2-nitro-N'-[3-(3-piperidinomethylphenoxy)propyl]-1,1-ethenediamine], the inhibition in vivo at 3 mg/kg [1] is reported as 85%.
Work on `Cc1ccsc1C(O)CNC(=C[N+](=O)[O-])NCCSCc1ccc(CN(C)C)o1` (centres unmarked) [compound 7, N-{2-[[5-(dimethylamino)methyl-2-furyl]methylthio]ethyl}-N'-[2-hydroxy-2-(3-methyl-2-thienyl)ethyl]-2-nitro-1,1-ethenediamine] yielded an inhibition in vivo at 3 mg/kg [1] of 88%, an ED100 [2] of 0.1 mg/kg and a Duration [2] of 227 min.
Work on `CN(C)Cc1ccc(CSCCNC(=C[N+](=O)[O-])NCC(O)c2ccc(Cl)cc2)o1` (centres unmarked) [compound 5, N-[2-(4-chlorophenyl)-2-hydroxyethyl]-N'-{2-[[5-(dimethylamino)methyl-2-furyl]methylthio]ethyl}-2-nitro-1,1-ethenediamine] yielded an inhibition in vivo at 3 mg/kg [1] of 80%, an ED100 [2] of 0.1 mg/kg and a Duration [2] of 192 min.
For `O=[N+]([O-])C=C(NCCCOc1cccc(CN2CCCCC2)c1)NCC(O)c1cccc(F)c1` (centres unmarked) [compound 43, N-[2-(3-fluorophenyl)-2-hydroxyethyl]-2-nitro-N'-[3-(3-piperidinomethylphenoxy)propyl]-1,1-ethenediamine], the inhibition in vivo at 1 mg/kg [1] was 51%.
`O=[N+]([O-])C=C(NCCCOc1cccc(CN2CCCCC2)c1)NCC(O)c1ccccc1` (stereo not drawn) [compound 11, N-(β-hydroxyphenethyl)-2-nitro-N'-[3-(3-piperidinomethylphenoxy)propyl]-1,1-ethenediamine] gave an inhibition in vivo at 3 mg/kg [1] of 79%, an inhibition in vivo at 10 mg/kg [1] of 81% and an ED100 [2] of 0.05 mg/kg. For the same compound, the Duration [2] was 123 min.
In the case of `O=[N+]([O-])C=C(NCCCOc1cccc(CN2CCCCC2)c1)NCC(O)c1cccc(O)c1` (centres unmarked) [compound 13, N-[2-hydroxy-2-(3-hydroxyphenyl)ethyl]-2-nitro-N'-[3-(3-piperidinomethylphenoxy)propyl]-1,1-ethenediamine], the inhibition in vivo at 1 mg/kg [1] is reported as 51%, the ED100 [2] is reported as 0.1 mg/kg and the Duration [2] is reported as over 240 min.
With `NC(N)=Nc1nc(CSCCNC(=C[N+](=O)[O-])NCC(O)c2ccccc2)cs1` (centres unmarked) [compound 2] the ED100 [2] was 0.1 mg/kg and the Duration [2] was over 160 min.
`Cc1ccccc1C(O)CNC(=C[N+](=O)[O-])NCCSCc1ccc(CN(C)C)o1` (centres unmarked) [compound 39, N-{2-[[5-(dimethylamino)methyl-2-furyl]methylthio]ethyl}-N'-[2-hydroxy-2-(2-methylphenyl)ethyl]-2-nitro-1,1-ethenediamine] showed an inhibition in vivo at 3 mg/kg [1] of 90%.
Work on `O=[N+]([O-])C=C(NCCCOc1cccc(CN2CCCCC2)c1)NCC(O)c1ccc(F)c(F)c1` (centres unmarked) [compound 30, N-[2-(3,4-difluorophenyl)-2-hydroxyethyl]-2-nitro-N'-[3-(3-piperidinomethylphenoxy)propyl]1,1-ethenediamine] yielded an ED100 [2] of 0.15 mg/kg and a Duration [2] of over 240 min.
`CN(C)Cc1ccc(CSCCNC(=C[N+](=O)[O-])NCC(O)c2cccnc2)o1` (centres unmarked) [compound 8, N-{2-[[5-(dimethylamino)methyl-2-furyl]methylthio]ethyl}-N'-[2-hydroxy-2-(3-pyridyl)ethyl]-2-nitro-1,1-ethenediamine] was tested, and the ED100 [2] was 0.3 mg/kg and the Duration [2] was 200 min.
`COc1ccc(C(O)CNC(=C[N+](=O)[O-])NCCSCc2ccc(CN(C)C)o2)cc1` (centres unmarked) [compound 37, N-{2-[[5-(dimethylamino)methyl-2-furyl]methylthio]ethyl}-N'-[2-hydroxy-2-(4-methoxyphenyl)ethyl]-2-nitro-1,1-ethenediamine] was tested, and the inhibition in vivo at 3 mg/kg [1] was 77%.
`CN(C)Cc1ccc(CSCCNC(=C[N+](=O)[O-])NCC(O)c2cccs2)o1` (centres unmarked) [compound 6] showed an inhibition in vivo at 3 mg/kg [1] of 67%, an inhibition in vivo at 10 mg/kg [1] of 93% and an ED100 [2] of 0.1 mg/kg. It also gave a Duration [2] of 132 min.
Work on `Cc1cc(CSCCNC(=C[N+](=O)[O-])NCC(O)c2cccc(Cl)c2)sc1CN(C)C` (centres unmarked) [compound 28, N-[2-(3-chlorophenyl)-2-hydroxyethyl]-N'-{2-[[5-(dimethylamino)methyl-4-methyl-2-thienyl]methylthio]ethyl}-2-nitro-1,1-ethenediamine] yielded an ED100 [2] of 0.1 mg/kg and a Duration [2] of 205 min.
Compound `O=[N+]([O-])C=C(NCCCOc1cccc(CN2CCCCC2)c1)NCC(O)c1ccc(O)cc1` (centres unmarked) [compound 12, N-[2-hydroxy-2-(4-hydroxyphenyl)ethyl]-2-nitro-N'-[3-(3-piperidinomethylphenoxy)propyl]-1,1-ethenediamine] has an inhibition in vivo at 3 mg/kg [1] of 87%, an ED100 [2] of 0.15 mg/kg and a Duration [2] of over 240 min.
